Experimental data from patent US20240365736A1, “COMPOSITIONS AND METHODS FOR TARGETED DEGRADATION OF PROTEINS IN A PLANT CELL” (Oerth Bio LLC, priority 2021, published 2024).

System: Matricaria recutita, Diplotaxis tenuifolia, Agrostis spp., Poa annua, or Arabidopsis thaliana
Assay: Plant phenotyping assay (herbicidal phenotypes, 96-well plates); note: key: '+++' is highly active; '++' is moderately active; '+' is weakly active; '−' is inactive
Format: in vivo
Details: visual score of herbicidal phenotypes after seven days; 238, 475, 950, and 1900 g ai/ha (50-400 uM)
Protocol: Seeds of Matricaria recutita, Diplotaxis tenuifolia, Agrostis spp., Poa annua, or Arabidopsis thaliana were sown into 96-well plates containing 200 μl of growth media [0.5× Murashige and Skoog (MS) basal media (Sigma-Aldrich), 2.5 mM 2-(N-morpholino) ethanesulfonic acid (MES—Sigma-Aldrich), 0.7 g/L Phytagar (Invitrogen); pH 5.7]. Three to five seeds were distributed per well. Plates were placed under fifteen hours of light at 23° C., 65% humidity in a controlled environment growth chamber. After approximately three days, test compounds and controls were mixed with acetone and emulsified with an equal volume of 3% methyl ester of rapeseed oil (Mero), and applied to plants at concentrations of 238, 475, 950, and 1900 g ai/ha (50-400 uM).

SMILES	Plant Activity
O=C1CCC(N2C(=O)c3ccc(N4CCN(CCOCCOCCOc5cccc(C(=O)C6C(=O)CCCC6=O)c5Cl)CC4)cc3C2=O)C(=O)N1 (stereo not shown) [Compound 2, 5-[4-[2-[2-[2-[2-chloro-3-(2,6-dioxocyclohexane-carbonyl)phenoxy]ethoxy]-ethoxy]ethyl]piperazin-1-yl]-2-(2,6-dioxo-3-piperidyl)isoindoline-1,3-dione]	+
CCOC(=O)[C@@H](C)Oc1ccc(Oc2ccc(OC3CCN(CCOCCOCCOCCN4CCN(c5ccc6c(c5)C(=O)N(C5CCC(=O)NC5=O)C6=O)CC4)CC3)cn2)cc1 (stereo partly drawn) [Compound 6-C, Ethyl (2R)-2-(4-((5-((1-(2-(2-(2-(2-(4-(2-(2,6-dioxopiperidin-3-yl)-1,3-dioxoisoindolin-5-yl)piperazin-1-yl)ethoxy)ethoxy)ethoxy)ethyl)piperidin-4-yl)oxy)pyridin-2-yl)oxy)phenoxy)-propanoate]	−
COc1cnc(OC)n2nc(NS(=O)(=O)c3c(OCCN4CCC(CCCN5CCN(c6ccc7c(c6)C(=O)N(C6CCC(=O)NC6=O)C7=O)CC5)CC4)cccc3C(F)(F)F)nc12 (stereo not shown) [Compound 4-L, N-(5,8-Dimethoxy-[1,2,4]triazolo[1,5-c]pyrimidin-2-yl)-2-(2-(4-(3-(4-(2-(2,6-dioxopiperidin-3-yl)-1,3-dioxoisoindolin-5-yl)piperazin-1-yl)propyl)piperidin-1-yl)ethoxy)-6-(trifluoromethyl)benzenesulfonamide]	−
COc1cnc(OC)n2nc(NS(=O)(=O)c3c(OCCOCCOCCOCCOCCNC(=O)COc4cccc5c4C(=O)N(C4CCC(=O)NC4=O)C5=O)cccc3C(F)(F)F)nc12 (stereo not shown) [Compound 4-H, N-(14-(2-(N-(5,8-Dimethoxy-[1,2,4]triazolo[1,5-c]pyrimidin-2-yl)sulfamoyl)-3-(trifluoromethyl)phenoxy)-3,6,9,12-tetraoxatetradecyl)-2-((2-(2,6-dioxopiperidin-3-yl)-1,3-dioxoisoindolin-4-yl)oxy)acetamide]	+++
COc1cnc(OC)n2nc(NS(=O)(=O)c3c(OCCOCCN4CC(OCCCN5CCN(c6ccc7c(c6)C(=O)N(C6CCC(=O)NC6=O)C7=O)CC5)C(F)(F)C4)cccc3C(F)(F)F)nc12 (stereo not shown) [Compound 4-S, N-(5,8-Dimethoxy-[1,2,4]triazolo[1,5-c]pyrimidin-2-yl)-2-(2-(2-(4-(3-(4-(2-(2,6-dioxopiperidin-3-yl)-1,3-dioxoisoindolin-5-yl)piperazin-1-yl)propoxy)-3,3-difluoropyrrolidin-1-yl)ethoxy)ethoxy)-6-(trifluoromethyl)benzenesulfonamide]	++
COc1cnc(OC)n2nc(NS(=O)(=O)c3c(OCCOc4ccc5c(c4)C(=O)N(C4CCC(=O)NC4=O)C5=O)cccc3C(F)(F)F)nc12 (stereo not shown) [Compound 4, N-(5,8-dimethoxy-[1,2,4]triazolo[1,5-c]pyrimidin-2-yl)-2-[2-[2-(2,6-dioxo-3-piperidyl)-1,3-dioxo-isoindolin-5-yl]oxyethoxy]-6-(trifluoromethyl)benzenesulfonamide]	+
COc1cnc(OC)n2nc(NS(=O)(=O)c3c(OCCCC4CCN(CCOCCOc5ccc6c(c5)C(=O)N(C5CCC(=O)NC5=O)C6=O)CC4)cccc3C(F)(F)F)nc12 (stereo not shown) [Compound 4-M, N-(5,8-Dimethoxy-[1,2,4]triazolo[1,5-c]pyrimidin-2-yl)-2-(3-(1-(2-(2-((2-(2,6-dioxopiperidin-3-yl)-1,3-dioxoisoindolin-5-yl)oxy)ethoxy)ethyl)piperidin-4-yl)propoxy)-6-(trifluoromethyl)benzenesulfonamide]	+
CCO/N=C(\CC)C1=C(O)CC(c2ccc(OCCOCCOCCN3CCN(c4ccc5c(c4)C(=O)N(C4CCC(=O)NC4=O)C5=O)CC3)cc2)CC1=O (stereo not shown) [Compound 5-B, (E)-2-(2,6-Dioxopiperidin-3-yl)-5-(4-(2-(2-(2-((4′-(1-(ethoxyimino)propyl)-5′-hydroxy-3′-oxo-1′,2′,3′,6′-tetrahydro-[1,1′-biphenyl]-4-yl)oxy)ethoxy)ethoxy)ethyl)piperazin-1-yl)isoindoline-1,3-dione]	+
CCO/N=C(\CC)C1=C(O)CC(c2ccc(OC3CCN(CCOCCOCCOCCN4CCN(c5ccc6c(c5)C(=O)N(C5CCC(=O)NC5=O)C6=O)CC4)CC3)cc2)CC1=O (stereo not shown) [Compound 5-C, (E)-2-(2,6-Dioxopiperidin-3-yl)-5-(4-(2-(2-(2-(2-(4-((4′-(1-(ethoxyimino)propyl)-5′-hydroxy-3′-oxo-1′,2′,3′,6′-tetrahydro-[1,1′-biphenyl]-4-yl)oxy)piperidin-1-yl)ethoxy)ethoxy)ethoxy)ethyl)piperazin-1-yl)isoindoline-1,3-dione]	+
CCOC(=O)[C@@H](C)Oc1ccc(Oc2ccc(OCCOCCOCCOc3ccc4c(c3)C(=O)N(C3CCC(=O)NC3=O)C4=O)cn2)cc1 (stereo partly drawn) [Compound 6, Ethyl (2R)-2-(4-((5-(2-(2-(2-((2-(2,6-dioxopiperidin-3-yl)-1,3-dioxoisoindolin-5-yl)oxy)ethoxy)ethoxy)ethoxy)pyridin-2-yl)oxy)phenoxy)propanoate]	+
O=C(COc1ccc(Oc2cncc(C(F)(F)F)c2)cc1)NCCCOCCOCCOCCOCCOc1ccc2c(c1)C(=O)N(C1CCC(=O)NC1=O)C2=O (stereo not shown) [Compound 7, N-[3-[2-[2-[2-[2-[2-(2,6-dioxo-3-piperidyl)-1,3-dioxo-isoindolin-5-yl]oxyethoxy]-ethoxy]ethoxy]ethoxy]propyl]-2-[4-[[5-(trifluoromethyl)-3-pyridyl]oxy]phenoxy]acetamide]	+
COc1cnc(OC)n2nc(NS(=O)(=O)c3c(OCCCC4CCN(CCOCCOCCOc5ccc6c(c5)C(=O)N(C5CCC(=O)NC5=O)C6=O)CC4)cccc3C(F)(F)F)nc12 (stereo not shown) [Compound 4-N, N-(5,8-Dimethoxy-[1,2,4]triazolo[1,5-c]pyrimidin-2-yl)-2-(3-(1-(2-(2-(2-((2-(2,6-dioxopiperidin-3-yl)-1,3-dioxoisoindolin-5-yl)oxy)ethoxy)ethoxy)ethyl)piperidin-4-yl)propoxy)-6-(trifluoromethyl)benzenesulfonamide]	−
O=C1CCC(N2C(=O)c3ccc(N4CCN(CCOCCOCCOCCN5CCC(Oc6cccc(C(=O)C7C(=O)CCCC7=O)c6Cl)CC5)CC4)cc3C2=O)C(=O)N1 (stereo not shown) [Compound 2-A, 5-[4-[2-[2-[2-[2-[4-[2-Chloro-3-(2,6-dioxocyclohexanecarbonyl)phenoxy]-1-piperidyl]ethoxy]ethoxy]ethoxy]ethyl]piperazin-1-yl]-2-(2,6-dioxo-3-piperidyl)isoindoline-1,3-dione]	+
COc1cnc(OC)n2nc(NS(=O)(=O)c3c(OCCOCCOCCOCCCN4CCN(c5ccc6c(c5)C(=O)N(C5CCC(=O)NC5=O)C6=O)CC4)cccc3C(F)(F)F)nc12 (stereo not shown) [Compound 4-Q, N-(5,8-Dimethoxy-[1,2,4]triazolo[1,5-c]pyrimidin-2-yl)-2-(2-(2-(2-(3-(4-(2-(2,6-dioxopiperidin-3-yl)-1,3-dioxoisoindolin-5-yl)piperazin-1-yl)propoxy)ethoxy)ethoxy)ethoxy)-6-(trifluoromethyl)benzenesulfonamide]	++
O=C(COc1ccc(Oc2nc3ccc(F)cc3s2)cc1)NCCCOCCOCCOCCOCCOc1ccc2c(c1)C(=O)N(C1CCC(=O)NC1=O)C2=O (stereo not shown) [Compound 8, N-[3-[2-[2-[2-[2-[2-(2,6-dioxo-3-piperidyl)-1,3-dioxo-isoindolin-5-yl]oxyethoxy]-ethoxy]ethoxy]ethoxy]propyl]-2-[4-[(6-fluoro-1,3-benzothiazol-2-yl)oxy]phenoxy]acetamide]	+
COc1cnc(OC)n2nc(NS(=O)(=O)c3c(OCCOCCOCCOCCOCCOCCOc4cccc5c4C(=O)N(C4CCC(=O)NC4=O)C5=O)cccc3C(F)(F)F)nc12 (stereo not shown) [Compound 4-E, N-(5,8-Dimethoxy-[1,2,4]triazolo[1,5-c]pyrimidin-2-yl)-2-((17-((2-(2,6-dioxopiperidin-3-yl)-1,3-dioxoisoindolin-4-yl)oxy)-3,6,9,12,15-pentaoxaheptadecyl)oxy)-6-(trifluoromethyl)benzenesulfonamide]	++
O=C(COc1ccc(Oc2cncc(C(F)(F)F)c2)cc1)NCCCOCCOCCOc1ccc2c(c1)C(=O)N(C1CCC(=O)NC1=O)C2=O (stereo not shown) [Compound 7-A, N-(3-(2-(2-((2-(2,6-Cioxopiperidin-3-yl)-1,3-dioxoisoindolin-5-yl)oxy)ethoxy)ethoxy)propyl)-2-(4-((5-(trifluoromethyl)pyridin-3-yl)oxy)phenoxy)acetamide]	−
O=C1CCC(N2C(=O)c3ccc(N4CCN(CCCC5CCN(CCOCCOc6cccc(C(=O)C7C(=O)CCCC7=O)c6Cl)CC5)CC4)cc3C2=O)C(=O)N1 (stereo not shown) [Compound 2-B, 5-(4-(3-(1-(2-(2-(2-Chloro-3-(2,6-dioxocyclohexane-1-carbonyl)phenoxy)ethoxy)ethyl)piperidin-4-yl)propyl)piperazin-1-yl)-2-(2,6-dioxopiperidin-3-yl)isoindoline-1,3-dione]	+
COc1cnc(OC)n2nc(NS(=O)(=O)c3c(OC4CCN(CCOCCOCCOCCN5CCN(c6ccc7c(c6)C(=O)N(C6CCC(=O)NC6=O)C7=O)CC5)CC4)cccc3C(F)(F)F)nc12 (stereo not shown) [Compound 4-O, N-(5,8-Dimethoxy-[1,2,4]triazolo[1,5-c]pyrimidin-2-yl)-2-((1-(2-(2-(2-(2-(4-(2-(2,6-dioxopiperidin-3-yl)-1,3-dioxoisoindolin-5-yl)piperazin-1-yl)ethoxy)ethoxy)ethoxy)ethyl)piperidin-4-yl)oxy)-6-(trifluoromethyl)benzenesulfonamide]	−
